Test results as given in the NIST ThermoML archive (doi:10.1021/je900124n).
Values joined by “and” are separate entries in the source; they are usually repeats but may differ in a detail not shown here. Equal values may be shown once.

Conditions: Fluid (supercritical or subcritical phases), Buoyancy - hydrostatic balance with magnetic suspension - two sinkers

CCC [propane]
Conditions	mass density
370.82 K, 4316.6 kPa	196.656 kg/m3 and 196.671 kg/m3
370.82 K, 4316.7 kPa	196.709 kg/m3 and 196.642 kg/m3
370.82 K, 4316.8 kPa	196.799 kg/m3
370.83 K, 4238.2 kPa	146.891 kg/m3 and 146.895 kg/m3 and 146.889 kg/m3
370.83 K, 4238.3 kPa	146.899 kg/m3 and 146.89 kg/m3 and 146.892 kg/m3
370.83 K, 4316.8 kPa	196.721 kg/m3 and 196.767 kg/m3 and 196.684 kg/m3
370.83 K, 4323.4 kPa	219.805 kg/m3 [middle of 5 runs]
370.83 K, 4323.5 kPa	219.874 kg/m3 and 219.908 kg/m3 and 219.975 kg/m3
370.83 K, 4330.9 kPa	243.656 kg/m3 [middle of 4 runs]
370.83 K, 4331 kPa	243.626 kg/m3 and 243.674 kg/m3 and 243.648 kg/m3
370.83 K, 4331.1 kPa	243.671 kg/m3
370.85 K, 4240.8 kPa	147.314 kg/m3
370.85 K, 4240.9 kPa	147.324 kg/m3
370.85 K, 4306.4 kPa	177.862 kg/m3
370.85 K, 4306.5 kPa	177.914 kg/m3 and 177.843 kg/m3
370.85 K, 4306.6 kPa	177.931 kg/m3 and 177.874 kg/m3
370.85 K, 4322.8 kPa	208.978 kg/m3 and 208.99 kg/m3
370.85 K, 4322.9 kPa	208.933 kg/m3 and 209.016 kg/m3
370.85 K, 4323 kPa	209.074 kg/m3
370.85 K, 4327.4 kPa	226.65 kg/m3
370.85 K, 4327.5 kPa	226.647 kg/m3
370.85 K, 4353.6 kPa	265.164 kg/m3
370.85 K, 4353.7 kPa	265.36 kg/m3 and 265.182 kg/m3 and 265.138 kg/m3
370.85 K, 4353.8 kPa	265.176 kg/m3 [middle of 4 runs]
370.86 K, 4327.6 kPa	226.701 kg/m3 and 226.673 kg/m3
371.82 K, 4387.3 kPa	196.837 kg/m3 and 196.769 kg/m3
371.82 K, 4416.6 kPa	243.565 kg/m3
371.83 K, 4293.5 kPa	147.926 kg/m3
371.83 K, 4293.6 kPa	147.93 kg/m3 and 147.934 kg/m3 and 147.924 kg/m3
371.83 K, 4293.7 kPa	147.947 kg/m3 and 147.93 kg/m3
371.83 K, 4387.3 kPa	196.784 kg/m3 and 196.769 kg/m3
371.83 K, 4387.4 kPa	196.809 kg/m3 [middle of 4 runs]
371.83 K, 4400.8 kPa	219.56 kg/m3
371.83 K, 4400.9 kPa	219.574 kg/m3 and 219.677 kg/m3 and 219.642 kg/m3
371.83 K, 4401 kPa	219.681 kg/m3 [middle of 4 runs]
371.83 K, 4416.6 kPa	243.624 kg/m3
371.83 K, 4416.7 kPa	243.578 kg/m3 and 243.586 kg/m3
371.83 K, 4416.8 kPa	243.575 kg/m3 and 243.616 kg/m3 and 243.58 kg/m3
371.83 K, 4416.9 kPa	243.605 kg/m3
371.85 K, 4295.8 kPa	148.252 kg/m3
371.85 K, 4295.9 kPa	148.276 kg/m3 and 148.252 kg/m3
371.85 K, 4370.3 kPa	177.981 kg/m3
371.85 K, 4370.4 kPa	178.031 kg/m3 and 177.991 kg/m3 and 178.027 kg/m3
371.85 K, 4370.5 kPa	178.012 kg/m3
371.85 K, 4397.1 kPa	208.855 kg/m3 and 208.907 kg/m3
371.85 K, 4397.2 kPa	208.865 kg/m3 and 208.929 kg/m3 and 208.907 kg/m3
371.85 K, 4407.1 kPa	226.926 kg/m3
371.85 K, 4407.2 kPa	226.521 kg/m3 and 226.511 kg/m3
371.85 K, 4450.2 kPa	265.14 kg/m3
371.85 K, 4450.3 kPa	265.143 kg/m3
371.85 K, 4450.4 kPa	265.125 kg/m3 and 265.134 kg/m3 and 265.131 kg/m3
371.86 K, 4407.3 kPa	226.504 kg/m3 and 226.483 kg/m3
372 K, 4517.4 kPa	281.197 kg/m3
372 K, 4517.6 kPa	281.196 kg/m3 and 281.206 kg/m3 and 281.197 kg/m3
372 K, 4517.7 kPa	281.2 kg/m3 [middle of 4 runs]
375 K, 3980.2 kPa	100.464 kg/m3 and 100.463 kg/m3
375 K, 3980.3 kPa	100.468 kg/m3 and 100.463 kg/m3
